Data on one compound can be found in patent US20250066864A1, “METHODS FOR IDENTIFYING ADAR1 INHIBITORS, AND COMPOSITIONS AND METHODS OF USE IN TREATING CANCER” (The Wistar Institute of Anatomy and Biology, priority 2021, published 2025).

“Also recorded” adds a separate entry of the source.

Assay [1] concerns HeLa cells. The assay is described as follows: dot blot analysis for RNA:DNA hybrids in HeLa cells. Format: cell-based, human. The conditions noted are these: 10 μM. The protocol:
FIGS. 29A-29D Characterization of Compound #13 effects in cancer cells. […] Viability was examined using the Apo Tox-Glo assay system (Promega). Control, 0.3% DMSO. (FIG. 29B) Western blotting analysis of HeLa cells treated with Compound #13 (10 μM). […] (FIG. 29D) Activation of the IFN signaling pathway. HSC-4 squamous carcinoma cells were treated with Compound #13 at 10 μM (12 hrs). RNA samples were analyzed by qRT-PCR to monitor expression levels of ISGs.
Dot blot analysis of genomic DNA Cells were treated with siRNA for 72 h in a 10 cm dish, detached from the dish surface with TrypLE Express Enzyme, and harvested by centrifugation. After PBS wash, genomic DNA was purified using QIAGEN Blood & Cell Culture DNA Midi Kit. Briefly, the cell pellet was resuspended in buffer C1. After repeated buffer C1 wash and removal of the cell debris, the nuclear pellet was resuspended in buffer G2 (without rNase A) and treated with 2 mg of proteinase K at 50° C. for 60 min. The nuclear fraction was applied to a buffer QBT-treated QIAGEN Genomic-tip and washed twice with buffer QC. […]
Genomic DNA was diluted in 100 μl of 6× saline sodium citrate (SSC) and spotted onto a Hybond N^+ (GE Healthcare) using a Bio-Dot Apparatus (#1706545, Bio-Rad). […] After washing four times with PBST, dot signals were detected with ECL (GE Healthcare) using X-ray films. […]

The target in assay [2] is T1, ADAR1p150 (Homo sapiens, UniProt P55265).
T1 construct: a full-length interferon-inducible p150 and a shorter N-terminus truncated p110
T1 sequence (P55265 1-1226): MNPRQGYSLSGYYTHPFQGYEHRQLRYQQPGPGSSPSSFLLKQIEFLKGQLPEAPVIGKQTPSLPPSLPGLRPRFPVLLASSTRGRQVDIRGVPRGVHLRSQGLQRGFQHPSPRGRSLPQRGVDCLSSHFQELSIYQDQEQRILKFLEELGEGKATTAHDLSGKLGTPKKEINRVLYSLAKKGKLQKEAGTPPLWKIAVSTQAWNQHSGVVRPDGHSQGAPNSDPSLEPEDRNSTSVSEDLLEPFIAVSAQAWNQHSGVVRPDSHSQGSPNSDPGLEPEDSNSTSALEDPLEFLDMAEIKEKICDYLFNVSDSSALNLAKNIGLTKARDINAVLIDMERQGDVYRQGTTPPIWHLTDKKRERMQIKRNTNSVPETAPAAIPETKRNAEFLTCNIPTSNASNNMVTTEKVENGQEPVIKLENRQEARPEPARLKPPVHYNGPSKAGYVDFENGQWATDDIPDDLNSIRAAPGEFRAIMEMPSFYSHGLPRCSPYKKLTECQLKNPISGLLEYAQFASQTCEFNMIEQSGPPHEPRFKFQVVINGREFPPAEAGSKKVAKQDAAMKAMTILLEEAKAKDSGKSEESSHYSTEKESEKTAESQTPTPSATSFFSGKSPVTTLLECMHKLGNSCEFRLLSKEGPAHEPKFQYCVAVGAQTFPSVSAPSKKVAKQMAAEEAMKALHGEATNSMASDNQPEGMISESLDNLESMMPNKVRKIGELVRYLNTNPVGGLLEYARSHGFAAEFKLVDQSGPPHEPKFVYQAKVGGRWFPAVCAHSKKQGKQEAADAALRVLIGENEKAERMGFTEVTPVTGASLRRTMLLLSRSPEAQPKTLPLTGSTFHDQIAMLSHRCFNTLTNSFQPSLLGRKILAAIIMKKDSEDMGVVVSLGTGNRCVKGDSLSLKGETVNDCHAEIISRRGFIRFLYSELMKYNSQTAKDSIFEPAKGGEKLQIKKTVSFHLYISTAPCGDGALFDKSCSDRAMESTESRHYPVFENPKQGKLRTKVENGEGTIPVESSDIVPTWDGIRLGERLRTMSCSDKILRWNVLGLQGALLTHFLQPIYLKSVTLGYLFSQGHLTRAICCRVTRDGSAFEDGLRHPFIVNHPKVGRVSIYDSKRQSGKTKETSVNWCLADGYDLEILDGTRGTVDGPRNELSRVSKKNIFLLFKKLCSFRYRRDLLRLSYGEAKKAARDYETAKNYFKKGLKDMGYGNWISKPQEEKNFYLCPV
Kind of assay: in vitro editing assay, ADAR1p150. In kind it is biochemical. The conditions noted are these: dsRNAs (matched, mismatched) and DNA:RNA hybrids; not shown. The procedure: We conducted in vitro editing assay at varying concentrations of Compound #13 with dsRNAs (matched, mismatched) and DNA:RNA hybrids, resulting in determination of IC50 values for ADAR1p110 and ADAR1p150 (not shown) in 7-40 μM ranges: examples of such experiments done for dsRNA are shown (FIG. 8). […] In vivo ADAR1 inhibitory effects in HeLa cells were examined by cDNA sequencing of RT-PCR products of known ADAR1 target RNAs. One example of analysis of such ADAR1 target sites located within the 3′UTR Alu dsRNA of TMPO mRNAs is shown (FIGS. 28A and 28B). This particular ADAR1 target site is highly edited in HeLa cells, more than 80%. Compound #13 inhibited this ADAR1 target site editing down to 0% (FIGS. 28A and 28B).

As a reminder, the IC50 is the point on the concentration scale where inhibition reaches its midpoint. Lower therefore signals inhibition by little substance. With `N#Cc1ccc(NC(=O)c2sc3ccccc3c2Cl)cc1` [Compound #13, 3-chloro-N-(4-cyanophenyl)-1-benzothiophene-2-carboxamide], the “formation of R-loops (RNA:DNA hybrids)” value in assay [1] is on record as “increased formation of R-loops; also recorded: RNA:DNA hybrids induced”. For the same compound, the half-maximal inhibitory concentration (IC50) in assay [2] was 7 to 40 µM.
